Experiment [1] concerns the target T1, His-TEV-DYRK1A Kinase domain (aa127-485) (Homo sapiens, UniProt Q13627).
T1 construct: His-TEV-DYRK1A Kinase domain (aa127-485); His tag (N); TEV protease cleavage site (N)
Briefly: Kinase ADP assay (ADP Hunter), DYRK1A kinase domain. It counts as biochemical. As to conditions: 20 μM ATP. The method in brief: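 Readout is ADP Hunter fluorescence at 590 nm, developed 20 min at 30 °C after the kinase step. That step ran 10 min at 30 °C in Hepes pH 7.4 (10 mM MgCl2, 1 mM EGTA, 0.02% Tween20) containing 20 μM ATP, 40 μM peptide and 20 nM enzyme plus compound.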

The target in another experiment is T2, CDK9 (Homo sapiens, UniProt P50750).
T2 construct: full-length human kinases from Carna Biosciences; purchased Carna Biosciences 04-110
Briefly: Kinase TR-FRET assay, CDK9. It counts as biochemical. The note with it: full-length human kinase, 10 μM ATP. On the procedure:
Inhibition of the enzymatic activity of human kinases was evaluated in a Time-Resolved Fluorescence Resonance Energy Transfer (TR-FRET) assay in 384-well reaction plates. In this assay, full-length human kinases from Carna Biosciences—DYRK1A (NM_001396, ref. 04-130; 2.0 ng/μl), DYRK1B (NM_004714, ref. 04-131; 1.2 ng/p), CLK1 (NM_001162407, ref. 04-126; 0.7 ng/μl), CDK9 (NM_001261, ref. 04-110; 0.9 ng/μl), or GSK3β (NM_001146156, ref. 04-141; 2.0 ng/μl—were incubated for 40 minutes (DYRK1A and DYRK1B) or 100 minutes (CLK1, CDK9 and GSK3β) at room temperature with ATP (Sigma A2383, 10 μM) and a ULight™-labelled human Myelin Basic Protein (MBP) peptide substrate (Perkin Elmer TRF0109, 100 nM) in a reaction buffer composed of 50 mM HEPES pH7.4, 1 mM EGTA, 10 mM MgCl2, 2 mM DTT and 0.01% Tween20. Test compounds of the invention were added in reaction buffer at a range of concentrations from 0.1 nM to 30 μM. Following addition of EDTA (Sigma E7889, 10 mM) to stop the reaction, Europium-labelled mouse monoclonal antibody recognizing phospho-Thr232 in MBP (Perkin Elmer TRF0201, 1 nM) was added. After one hour, the reaction plates were read using a fluorescence reader (EnVision®, Perkin Elmer) at 620 nm and 665 nm (excitation at 340 nm); when the Europium donor fluorophore is excited by light at 340 nm, an energy transfer (620 nm) to the acceptor occurs, which will then emit light at 665 nm.

Experiment [2] has as its target T3, DYRK1A (Homo sapiens, UniProt Q13627). Briefly: Kinase TR-FRET assay, DYRK1A. It counts as biochemical. The note with it: full-length human kinase, 10 μM ATP. More on the design: full-length, wild-type human DYRK1A (NM_001396) with an HA tag; expressed in transfected cells; host or cells: human U2-OS osteosarcoma cells, transient transfection of a pcDNA3.1 plasmid. On the procedure:
(§1) Inhibition of the enzymatic activity of human kinases was evaluated in a Time-Resolved Fluorescence Resonance Energy Transfer (TR-FRET) assay in 384-well reaction plates. […] Test compounds of the invention were added in reaction buffer at a range of concentrations from 0.1 nM to 30 μM. Following addition of EDTA (Sigma E7889, 10 mM) to stop the reaction, Europium-labelled mouse monoclonal antibody recognizing phospho-Thr232 in MBP (Perkin Elmer TRF0201, 1 nM) was added.

In another experiment the target is T4, DYRK1B (Homo sapiens, UniProt Q9Y463).
T4 construct: full-length human kinases from Carna Biosciences; purchased Carna Biosciences 04-131
Description: Kinase TR-FRET assay, DYRK1B. The note with it: full-length human kinase, 10 μM ATP. It counts as biochemical. As for the experimental part: as §1

For experiment [3], the target named is T3, DYRK1A. Description: Cellular DYRK1 autophosphorylation assay in U2-OS cells. The note with it: U2-OS cells transfected with HA-tagged human DYRK1A, 5 hours exposure; read-out: IC50 (μM) P-Ser520-Dyrk1A -Cell assay. More on the design: full-length, wild-type human DYRK1A (NM_001396) with an HA tag; expressed in transfected cells; host or cells: human U2-OS osteosarcoma cells, transient transfection of a pcDNA3.1 plasmid. It counts as cell-based. As for the experimental part: On day 2, cells were exposed to a range of concentrations of the test compounds of the invention for 5 hours. […] The relative levels of phospho-Ser520-DYRK1A were assayed using either western blotting or the Mesoscale ELISA platform. For analysis by western blot, lysates were diluted into Laemmli sample buffer (Bio-Rad) containing 5% v/v β-mercaptoethanol, heated for 5 min at 95° C., and resolved on Tris-glycine gels or NuPage Bis-Tris gels (Novex; Invitrogen). Biotinylated molecular weight standards (Cell Signaling Technology) were included in all gels. Proteins were transferred to nitrocellulose membranes (Hybond, ECL; Amersham), which were blocked in Tris-buffered saline/0.1% tween 20 (TBST) containing 5% milk, and probed at 4° C. overnight with anti-phospho-Ser520-DYRK1A antibody (Eurogentec SE6974-75; 0.23 μg/ml in 5% BSA) or anti DYRK1A antibody (Abnova H00001859; 0.5 μg/ml in 5% milk). Peroxidase-conjugated secondary antibodies were diluted into 5% milk and applied to membranes for 1 h at 20° C. Chemiluminescence detection was performed using the ECL plus western blotting detection kit (Amersham) and was recorded on ECL plus hyperfilm (Amersham). Blots were scanned using the Bio-Rad GS-800 calibrated densitometer and quantitative analysis of western blots was performed using TotalLab software (Amersham). IC50 values for inhibition of phospho-Ser520-DYRK1A were calculated from dose-response curves plotting the ratio between phospho-Ser520-DYRK1A and total DYRK1A signals at each concentration. […] Anti-phospho-Ser520-DYRK1A antibody (Eurogentec SE6974-75; […]) and anti DYRK1A antibody (Abnova H00001859; 3 μg/ml) was then added for 1 hour at RT, followed by addition of Sulfa-TAG anti-rabbit detection antibody (ref MSD R32AB; 1 μg/ml) and Sulfa-TAG anti-mouse detection antibody (ref MSD R32-AC-1; 1 μg/ml). After a further 1 hour, Read Buffer was added and plates were read on the Sector Imager 2400 (Mesoscale). IC50 values for inhibition of phospho-Ser520-DYRK1A were calculated from dose-response curves.

Molecules are shown by their SMILES.

T4 sequence (Q9Y463 whole entry): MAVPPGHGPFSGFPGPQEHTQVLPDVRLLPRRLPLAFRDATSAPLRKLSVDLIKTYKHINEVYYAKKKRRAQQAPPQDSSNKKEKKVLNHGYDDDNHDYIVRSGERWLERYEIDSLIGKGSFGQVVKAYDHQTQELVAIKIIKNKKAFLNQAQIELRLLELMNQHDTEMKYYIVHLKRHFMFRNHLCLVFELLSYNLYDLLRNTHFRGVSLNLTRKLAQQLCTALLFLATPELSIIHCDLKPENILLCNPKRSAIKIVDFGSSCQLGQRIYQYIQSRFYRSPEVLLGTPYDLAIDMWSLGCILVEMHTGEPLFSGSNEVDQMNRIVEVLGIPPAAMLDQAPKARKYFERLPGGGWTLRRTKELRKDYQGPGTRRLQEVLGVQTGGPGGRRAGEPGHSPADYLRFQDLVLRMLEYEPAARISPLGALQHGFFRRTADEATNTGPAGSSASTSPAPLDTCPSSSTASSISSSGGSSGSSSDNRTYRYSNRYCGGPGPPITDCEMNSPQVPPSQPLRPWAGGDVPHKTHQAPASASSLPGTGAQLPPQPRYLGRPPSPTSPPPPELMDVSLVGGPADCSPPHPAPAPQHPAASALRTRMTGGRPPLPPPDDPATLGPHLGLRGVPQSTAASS
T2 sequence (P50750 whole entry): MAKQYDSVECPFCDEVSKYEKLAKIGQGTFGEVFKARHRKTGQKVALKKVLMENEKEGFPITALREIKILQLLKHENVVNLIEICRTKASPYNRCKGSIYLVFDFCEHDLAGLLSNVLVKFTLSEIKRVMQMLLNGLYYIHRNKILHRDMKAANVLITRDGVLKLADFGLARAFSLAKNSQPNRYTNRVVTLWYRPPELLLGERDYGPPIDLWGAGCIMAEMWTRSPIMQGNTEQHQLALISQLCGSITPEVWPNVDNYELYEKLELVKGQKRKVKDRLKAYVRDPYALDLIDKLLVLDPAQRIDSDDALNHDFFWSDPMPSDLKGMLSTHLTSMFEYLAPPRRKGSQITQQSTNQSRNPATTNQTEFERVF
T2 sequence (O60563 whole entry partner): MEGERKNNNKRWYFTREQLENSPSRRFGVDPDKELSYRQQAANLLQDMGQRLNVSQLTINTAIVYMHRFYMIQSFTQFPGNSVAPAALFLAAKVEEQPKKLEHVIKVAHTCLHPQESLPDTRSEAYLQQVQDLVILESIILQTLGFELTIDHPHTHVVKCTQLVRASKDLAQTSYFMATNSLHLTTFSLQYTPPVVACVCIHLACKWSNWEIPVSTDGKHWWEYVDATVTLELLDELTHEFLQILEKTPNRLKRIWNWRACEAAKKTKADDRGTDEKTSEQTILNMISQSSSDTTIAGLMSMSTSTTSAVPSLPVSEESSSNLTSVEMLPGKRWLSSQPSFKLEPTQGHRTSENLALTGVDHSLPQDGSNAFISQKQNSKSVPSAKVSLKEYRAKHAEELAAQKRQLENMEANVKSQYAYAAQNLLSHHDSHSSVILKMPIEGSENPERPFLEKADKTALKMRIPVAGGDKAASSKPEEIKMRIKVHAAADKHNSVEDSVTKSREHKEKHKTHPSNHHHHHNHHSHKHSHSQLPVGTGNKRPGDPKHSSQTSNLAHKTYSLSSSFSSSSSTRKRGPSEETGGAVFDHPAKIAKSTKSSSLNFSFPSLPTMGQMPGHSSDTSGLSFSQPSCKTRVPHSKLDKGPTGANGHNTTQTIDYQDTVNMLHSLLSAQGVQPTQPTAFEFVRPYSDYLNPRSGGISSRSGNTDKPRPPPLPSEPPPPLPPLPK

Take `Cc1nc2ccc(-c3cc(N)nc(N)c3)nc2n1Cc1cccnc1` [Example 7, 4-[2-methyl-3-(pyridin-3-ylmethyl)-3H-imidazo[4,5-b]pyridin-5-yl]pyridine-2,6-diamine]: the half-maximal inhibitory concentration (IC50) in experiment [1] was determined as 0.079 µM; at CDK9 it was 2.38 µM; against DYRK1A [2], 0.07 µM.
Regarding `Cc1nc2ccc(-c3cc(N)nc(N)c3)nc2n1C1Cc2ccccc2C1` [Example 12, 4-[3-(2,3-dihydro-1H-inden-2-yl)-2-methyl-3H-imidazo[4,5-b]pyridin-5-yl]pyridine-2,6-diamine], the IC50 is 0.009 µM in experiment [1], 0.003 µM at DYRK1B, 0.07 µM at DYRK1A [3] and 0.002 µM on DYRK1A [2].
In the case of `Cc1nc2ccc(-c3cc(N)nc(N)c3)nc2n1CCC1CC1` [Example 17, 4-[3-(2-cyclopropylethyl)-2-methyl-3H-imidazo[4,5-b]pyridin-5-yl]pyridine-2,6-diamine], the IC50 is 0.011 µM in experiment [1], 0.063 µM on DYRK1A [3] and 0.006 µM on DYRK1A [2].
Taken in the same sequence, the figures for `CCC(CC)Cn1c(C)nc2ccc(-c3cc(N)nc(N)c3)nc21` [Example 18, 4-[3-(2-ethylbutyl)-2-methyl-3H-imidazo[4,5-b]pyridin-5-yl]pyridine-2,6-diamine] were 0.013 µM, 0.108 µM and 0.002 µM.
For `Cc1nc2ccc(-c3cc(N)nc(N)c3)nc2n1CCc1cnn(-c2ccccc2)c1` [Example 21, 4-{2-methyl-3-[2-(1-phenyl-1H-pyrazol-4-yl)ethyl]-3H-imidazo[4,5-b]pyridin-5-yl}pyridine-2,6-diamine], the figures for the IC50 (in experiment [1]; on CDK9; at DYRK1A [2]) were 0.053 µM, 12.5 µM and 0.015 µM, respectively.
Consider `Cc1nc2ccc(-c3cc(N)nc(N)c3)nc2n1CC(F)(F)F` [Example 28, 4-[2-methyl-3-(2,2,2-trifluoroethyl)-3H-imidazo[4,5-b]pyridin-5-yl]pyridine-2,6-diamine], for which half-maximal inhibition against CDK9 (IC50) was put at 5.7 µM.
Consider `CSCCCn1c(C)nc2ccc(-c3cc(N)nc(N)c3)nc21` [Example 44, 4-{2-methyl-3-[3-(methylsulfanyl)propyl]-3H-imidazo[4,5-b]pyridin-5-yl}pyridine-2,6-diamine], for which the IC50 in experiment [1] was 0.011 µM; at DYRK1A [3], 0.023 µM; against DYRK1A [2] it was 0.019 µM.
Take `Cc1nc2ccc(-c3cc(N)nc(N)c3)nc2n1Cc1cc(OC(F)(F)F)ccc1F` [Example 50, 4-{3-[2-fluoro-5-(trifluoromethoxy)benzyl]-2-methyl-3H-imidazo[4,5-b]pyridin-5-yl}pyridine-2,6-diamine]: the figures for the IC50 (in experiment [1]; at CDK9; against DYRK1A [2]) were 0.057 µM, 1.99 µM and 0.029 µM, respectively.
As to `Cc1nc2ccc(-c3cc(N)nc(N)c3)nc2n1CCC(C)(C)C` [Example 52, 4-[3-(3,3-dimethylbutyl)-2-methyl-3H-imidazo[4,5-b]pyridin-5-yl]pyridine-2,6-diamine], the IC50 amounted to 0.006 µM in experiment [1], 0.008 µM against DYRK1B and 0.006 µM on DYRK1A [2].
`Cc1nc2ccc(-c3cc(N)nc(N)c3)nc2n1C(C)C` [Example 53, 4-[2-methyl-3-(propan-2-yl)-3H-imidazo[4,5-b]pyridin-5-yl]pyridine-2,6-diamine] came in with an IC50 at CDK9 of 1.31 µM.
In the case of `Cc1nc2ccc(-c3cc(N)nc(N)c3)nc2n1C1CCCCC1` [Example 54, 4-(3-cyclohexyl-2-methyl-3H-imidazo[4,5-b]pyridin-5-yl)pyridine-2,6-diamine], the IC50 in experiment [1] is 0.006 µM; against DYRK1B, 0.003 µM; on DYRK1A [3], 0.023 µM; at DYRK1A [2], 0.003 µM.
For the molecule `Cc1nc2ccc(-c3cc(N)nc(N)c3)nc2n1CC1CCCCC1` [Example 55, 4-[3-(cyclohexylmethyl)-2-methyl-3H-imidazo[4,5-b]pyridin-5-yl]pyridine-2,6-diamine], the IC50 was found to be 0.024 µM in experiment [1], 0.021 µM against DYRK1B, 0.16 µM on DYRK1A [3] and 0.002 µM against DYRK1A [2].
For the molecule `CCc1nc2ccc(-c3cc(N)nc(N)c3)nc2n1C1Cc2ccccc2C1` [Example 158, 4-[3-(2,3-dihydro-1H-inden-2-yl)-2-ethyl-3H-imidazo[4,5-b]pyridin-5-yl]pyridine-2,6-diamine], the values for the IC50 (in experiment [1]; against DYRK1B; at DYRK1A [2]) were 0.014 µM, 0.016 µM and 0.008 µM, respectively.
Consider `CCCc1nc2ccc(-c3cc(N)nc(N)c3)nc2n1C1CCCC1` [Example 160, 4-(3-cyclopentyl-2-propyl-3H-imidazo[4,5-b]pyridin-5-yl)pyridine-2,6-diamine], for which the IC50 in experiment [1] worked out at 0.024 µM; against DYRK1B, 0.068 µM; on DYRK1A [3], 0.144 µM; against DYRK1A [2], 0.003 µM.
As to `Cn1c(C(F)F)nc2ccc(-c3cc(N)nc(N)c3)nc21` [Example 228, 4-[2-(difluoromethyl)-3-methyl-3H-imidazo[4,5-b]pyridin-5-yl]pyridine-2,6-diamine], the IC50 in experiment [1] came out at 0.01 µM; against DYRK1B it was 0.012 µM; on DYRK1A [2], 0.004 µM.
Turning to `CCCCn1c(C)nc2ccc(-c3ccnc(N)c3)nc21` [Example 236, 4-(3-butyl-2-methyl-3H-imidazo[4,5-b]pyridin-5-yl)pyridin-2-amine], the IC50 in experiment [1] is 0.023 µM; against DYRK1B, 0.018 µM; at DYRK1A [2], 0.013 µM.
As for `Cc1nc2ccc(-c3ccnc(N)c3)nc2n1CC1CC1` [Example 238, 4-[3-(cyclopropylmethyl)-2-methyl-3H-imidazo[4,5-b]pyridin-5-yl]pyridin-2-amine], the IC50 amounted to 0.05 µM in experiment [1], 0.02 µM against DYRK1B and 0.009 µM against DYRK1A [2].

The values are drawn from patent publication US20180273528A1 (LES LABORATOIRES SERVIER, priority 2015, published 2018).
